What all share (assay type): binding
In one assay the target is T1, Pellino 1 FHA (Homo sapiens, UniProt Q96FA3).
T1 construct: PELI1 and 2 FHA domains (residues 13–273 and 15–275, respectively); GST (N, cleaved yes); made in house; host or cells: E. coli BL21 (DE3)
T1 sequence (Q96FA3 13-273): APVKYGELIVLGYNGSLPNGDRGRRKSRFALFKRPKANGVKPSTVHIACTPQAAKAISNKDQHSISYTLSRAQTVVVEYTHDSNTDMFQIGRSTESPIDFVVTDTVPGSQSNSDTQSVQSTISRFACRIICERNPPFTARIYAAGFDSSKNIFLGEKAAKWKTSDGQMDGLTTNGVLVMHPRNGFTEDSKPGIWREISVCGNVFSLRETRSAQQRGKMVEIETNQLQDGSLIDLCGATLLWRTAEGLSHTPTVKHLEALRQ
Put plainly: Isothermal titration calorimetry of phosphopeptides with PELI1 FHA fragment. The following applies: for DG: ITC Gibbs free energy; for DG / DH / TDS: PELI1 FHA; for DG / DH / TDS / Kd: 25 mM HEPES pH 7.0, 200 mM NaCl, 1 mM TCEP; for DH: ITC change in enthalpy; for TDS: ITC temperature x change in entropy; for Kd: PELI1 FHA (residues 13–273) 16 μM in cell, peptide 160 μM in syringe, single-site binding model. The method, then:
(§1) The regions corresponding to the PELI1 and 2 FHA domains (residues 13–273 and 15–275, respectively) were cloned into the pGEX-6P1 vector using BamHI/XhoI restriction sites and expressed as a 3C protease-cleavable N-terminal GST fusion protein in BL21 (DE3) cells (NEB). A 20 ml LB overnight culture was inoculated into 1L of LB medium supplemented with 100 μg/ml ampicillin to an OD600 of 0.05 and incubated at 37°C, 250 rpm until an OD600 of 0.6 was reached, whereupon expression was induced with 1 mM isopropyl ß-D-1-thiogalactopyranoside (IPTG) and overnight incubation at 18°C. Overnight cultures were harvested for 20 min at 4,000g, 4°C and resuspended in 20 ml lysis buffer (50 mM HEPES pH 7.5, 150 mM NaCl, 0.2 mg/ml lysozyme, 20 μg/ml DNase, and 1x complete, EDTA-free protease inhibitor cocktail tablet) before sonication-mediated cell lysis. Insoluble material was removed by centrifugation (21,000g, 20 min) and the GST-FHA fusion proteins were purified from the clarified lysate containers using 1 ml bed volume of pre-equilibrated Glutathione Sepharose 4B beads. After washing with 20 column volumes of Pellino FHA buffer (50 mM HEPES pH 7.5, 150 mM NaCl), the protein was cleaved overnight at 4°C from GST with 1% (vol/vol) GST-3C protease and the flow-through was further purified by gel filtration using a HiLoad 16/60 Superdex 200 pg (Cytiva) column. Purified Pellino FHA domains were concentrated to 50 mg/ml with a 10 kD molecular weight cut-off concentrator (Sartorius).
(§2) For ITC analysis protein and peptides were buffer exchanged into 25 mM HEPES pH 7.0, 200 mM NaCl, 1 mM TCEP. Titrations were carried out using a Microcal PEAQ-ITC (Malvern) using 13 injections of peptide at a typical syringe concentration of 160 μM (1 × 0.4 μl, 12 × 3.0 μl) and FHA concentration of 16 μM in the cell. Data were analyzed with a single-site binding model using Microcal PEAQ-ITC software. Peptide sequences are: MDC1 pT699–AYDLQApTQCFA, MDC1-pT719–[…], MDC1-pT752–AYEVLApTQPFC, MDC1-pT765–AYEDSEpTQPFD, IRAK-pT141(+3Y)–AYSSASpTFLYP, γH2AX–GGKATQApSQEY. All peptides were synthesises with N-terminal acetylation and a C-terminal amide. MDC1 pT699 and pT719 were made with alanine substitutions at the pT+4 position (Leu and Met, respectively) to aid solubility and monodispersity.
A general note: ITC needs no label: the signal is the heat of the interaction.

In a further assay the target is T2, Pellino 2 FHA (Homo sapiens, UniProt Q9HAT8).
T2 construct: PELI1 and 2 FHA domains (residues 13–273 and 15–275, respectively); GST (N, cleaved yes); made in house; host or cells: E. coli BL21 (DE3)
T2 sequence (Q9HAT8 15-275): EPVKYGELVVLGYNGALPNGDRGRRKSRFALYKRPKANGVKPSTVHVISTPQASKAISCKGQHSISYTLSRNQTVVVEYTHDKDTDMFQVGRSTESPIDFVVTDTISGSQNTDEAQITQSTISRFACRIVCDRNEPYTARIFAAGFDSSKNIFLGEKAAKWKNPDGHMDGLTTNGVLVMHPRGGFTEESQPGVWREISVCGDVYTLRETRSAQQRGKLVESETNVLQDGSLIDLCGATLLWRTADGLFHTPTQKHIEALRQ
The assay can be described thus: Isothermal titration calorimetry of phosphopeptides with PELI2 FHA fragment. The following applies: for DG: ITC Gibbs free energy; for DG / DH / TDS: PELI2 FHA; for DH: ITC change in enthalpy; for TDS: ITC temperature x change in entropy. The method, then:
as §1, §2

A further assay deals with T3, MDC1 BRCT-r (Homo sapiens, UniProt Q14676).
T3 sequence (Q14676 1883-2089 limits assumed): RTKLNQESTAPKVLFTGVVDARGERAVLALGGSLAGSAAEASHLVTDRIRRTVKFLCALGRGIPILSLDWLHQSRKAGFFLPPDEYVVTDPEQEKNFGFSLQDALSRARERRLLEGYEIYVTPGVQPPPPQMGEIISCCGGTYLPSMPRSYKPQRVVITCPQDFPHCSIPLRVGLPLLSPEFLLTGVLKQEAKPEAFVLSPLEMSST
Put plainly: Isothermal titration calorimetry of γH2AX phosphopeptide with MDC1 BRCT-repeat fragment. The method, then: as §2

Where [1] appears, read: 25 mM HEPES pH 7.0, 200 mM NaCl, 1 mM TCEP.

Entries after “also recorded” stand apart in the source; their conditions may differ. Like-named read-outs stand apart in the source and are kept apart here. Square brackets hold non-standard residues; d marks the D form. Peptide text beside a SMILES is read from it. pT = C[C@@H](OP(=O)(O)O)[C@H](N)C(=O)O; pS = N[C@@H](COP(=O)(O)O)C(=O)O

At Pellino 1 FHA, `CC(=O)N[C@@H](C)C(=O)N[C@@H](Cc1ccc(O)cc1)C(=O)N[C@@H](CC(=O)O)C(=O)N[C@@H](CC(C)C)C(=O)N[C@@H](CCC(N)=O)C(=O)N[C@@H](C)C(=O)N[C@H](C(=O)N[C@@H](CCC(N)=O)C(=O)N[C@@H](CS)C(=O)N[C@@H](Cc1ccccc1)C(=O)N[C@@H](C)C(N)=O)[C@@H](C)OP(=O)(O)O` [MDC1-pT699] (Ac-AYDLQA[pT]QCFA-NH2) yielded a DG of -7.77 kcal/mol, a DH of -18.5 kcal/mol and a TDS of -10.7 kcal/mol. On Pellino 2 FHA (setting [1]), this compound had a DG of -8.13 kcal/mol, a DH of -19.9 kcal/mol and a TDS of -11.8 kcal/mol.
As usually defined, the Kd is a measure of binding affinity in units of concentration. On Pellino 1 FHA, `CC(=O)N[C@@H](C)C(=O)N[C@@H](Cc1ccc(O)cc1)C(=O)N[C@@H](CCC(=O)O)C(=O)N[C@@H](CC(=O)O)C(=O)N[C@@H](CCC(=O)O)C(=O)N1CCC[C@H]1C(=O)N[C@H](C(=O)N[C@@H](CCC(N)=O)C(=O)N[C@@H](C)C(=O)N[C@@H](Cc1ccccc1)C(=O)N[C@@H](C)C(N)=O)[C@@H](C)OP(=O)(O)O` [MDC1-pT719] (Ac-AYEDEP[pT]QAFA-NH2) had a DG of -8.13 kcal/mol, a DH of -21.8 kcal/mol and a TDS of -13.7 kcal/mol. For the same compound, the Kd at Pellino 1 FHA (ITC, read-out: Kd) came to 1140 nM. Besides, on Pellino 2 FHA (setting [1]), the DG was -8.08 kcal/mol, the DH was -34.7 kcal/mol and the TDS is -26.5 kcal/mol.
In the case of `CC(=O)N[C@@H](C)C(=O)N[C@@H](Cc1ccc(O)cc1)C(=O)N[C@@H](CCC(=O)O)C(=O)N[C@H](C(=O)N[C@@H](CC(C)C)C(=O)N[C@@H](C)C(=O)N[C@H](C(=O)N[C@@H](CCC(N)=O)C(=O)N1CCC[C@H]1C(=O)N[C@@H](Cc1ccccc1)C(=O)N[C@@H](CS)C(N)=O)[C@@H](C)OP(=O)(O)O)C(C)C` [MDC1-pT752] (Ac-AYEVLA[pT]QPFC-NH2), at Pellino 1 FHA, the DG was -8.1 kcal/mol, the DH was -18.5 kcal/mol and the TDS was -10.3 kcal/mol. The Kd at Pellino 1 FHA (ITC, read-out: Kd) came to 1140 nM. At Pellino 2 FHA (setting [1]), this compound came in with a DG of -8.15 kcal/mol, a DH of -28.2 kcal/mol and a TDS of -20 kcal/mol.
Turning to `CC(=O)N[C@@H](C)C(=O)N[C@@H](Cc1ccc(O)cc1)C(=O)N[C@@H](CCC(=O)O)C(=O)N[C@@H](CC(=O)O)C(=O)N[C@@H](CO)C(=O)N[C@@H](CCC(=O)O)C(=O)N[C@H](C(=O)N[C@@H](CCC(N)=O)C(=O)N1CCC[C@H]1C(=O)N[C@@H](Cc1ccccc1)C(=O)N[C@@H](CC(=O)O)C(N)=O)[C@@H](C)OP(=O)(O)O` [MDC1-pT765] (Ac-AYEDSE[pT]QPFD-NH2), at Pellino 1 FHA, the DG was -9.08 kcal/mol, the DH was -22 kcal/mol and the TDS is -12.9 kcal/mol. Besides, on Pellino 1 FHA (ITC, read-out: Kd), the Kd came out at 230 nM. For the same compound, at Pellino 1 FHA (ITC, compared with the other MDC1 TQXF phosphopeptides), the “tighter affinity than the other TQXF phosphopeptides” value is 5–10 fold. At Pellino 2 FHA (setting [1]), this compound showed a DG of -8.77 kcal/mol, a DH of -32.7 kcal/mol and a TDS of -23.9 kcal/mol.
`CC(=O)NCC(=O)NCC(=O)N[C@@H](CCCCN)C(=O)N[C@@H](C)C(=O)N[C@H](C(=O)N[C@@H](CCC(N)=O)C(=O)N[C@@H](C)C(=O)N[C@@H](COP(=O)(O)O)C(=O)N[C@@H](CCC(N)=O)C(=O)N[C@@H](CCC(=O)O)C(=O)N[C@@H](Cc1ccc(O)cc1)C(N)=O)[C@@H](C)O` [Peptide H2AX-pS139, reference compound] (Ac-GGKATQA[pS]QEY-NH2): the “interaction detected by ITC (in words)” value was “did not detect any interaction; also recorded: no detectable interactions” at Pellino 1 FHA (ITC, N-terminal PELI1 fragment (13–273), listed as γH2AX phosphopeptide); “did not detect any interaction; also recorded: no detectable interactions” on Pellino 2 FHA (ITC, N-terminal PELI2 fragment, listed as γH2AX phosphopeptide); “bound tightly; also recorded: tight binding” on MDC1 BRCT-r (ITC, purified MDC1 BRCT-repeat fragment, listed as γH2AX phosphopeptide). The Kd entry on Pellino 1 FHA (ITC) was “N.D.B”; at Pellino 2 FHA (ITC, PELI2 FHA (residues 15–275) 16 μM in cell, peptide 160 μM in syringe, 25 mM HEPES pH 7.0, 200 mM NaCl, 1 mM TCEP, single-site binding model), “N.D.B”; on MDC1 BRCT-r (ITC, MDC1 BRCT-repeat fragment, 25 mM HEPES pH 7.0, 200 mM NaCl, 1 mM TCEP, single-site binding model), 850 nM. Also, on MDC1 BRCT-r (ITC Gibbs free energy, MDC1 BRCT-r), the DG is -8.27 kcal/mol. On MDC1 BRCT-r (ITC change in enthalpy, MDC1 BRCT-r), this compound came in with a DH of -13.9 kcal/mol. Besides, the TDS on MDC1 BRCT-r (ITC temperature x change in entropy, MDC1 BRCT-r) is -5.62 kcal/mol.

The values above are taken from PMC11884936, “MDC1 mediates Pellino recruitment to sites of DNA double-strand breaks” (Life Science Alliance, 2025).
